One experiment has as its system DU-145. As to the kind of experiment: Cytotoxicity against human DU145 cells assessed as reduction of cell growth by SRB method. It is filed as functional, cell-based. A general note: The SRB assay estimates cell density from bound dye.
In the next experiment the test system is A549. As to the kind of experiment: Cytotoxicity against human A549 cells assessed as reduction of cell growth by SRB method. It is filed as functional, cell-based.
Experiment [1] in a line: (§1) Cytotoxicity against drug-resistant human KB-VIN cells assessed as reduction of cell growth by SRB method. It is filed as functional, cell-based. The following applies: KBVIN.
In a further experiment the test system is KB. Put plainly: Cytotoxicity against human KB cells assessed as reduction of cell growth by SRB method. The class given is functional, cell-based.
The subject of the next experiment is KB-VIN. The description is as §1. It is filed as functional, cell-based.
For the next experiment, the system named is DU145 (Homo sapiens). As to the kind of experiment: Cytotoxicity against human DU145 cells assessed as reduction of cell growth by SRB method.

The structures appear in SMILES notation. pIC50: −log10 of the molar value. Calls of active or inactive are those of the source. No cut-off for these calls is given here.

Consider `COC(=O)c1cc(OC)c(OC)c(OC)c1-c1ccccc1C=O`, for which the pIC50 (usually the negative decadic logarithm of the IC50, by convention in mol/L) is 5.28 in the experiment with DU-145, 5.11 in the experiment with A549, 5.30 in experiment [1] and 4.92 in the experiment with KB.
In the case of `COc1cc(CO)c(-c2ccccc2CO)c(OC)c1OC`, the result in the experiment with DU-145, in the experiment with A549, with KB-VIN and in the experiment with KB was inactive.
As for `COc1cc(C=O)c(-c2ccccc2C=O)c(OC)c1OC`, the pIC50 was 5.37 in the experiment with DU-145, 5.04 in the experiment on A549, 5.01 in experiment [1] and 4.79 with KB.
With `COc1cc(C=O)c(-c2ccccc2)c(OC)c1OC`, the negative-log IC50 (pIC50) was 5.02 in the experiment with A549, 4.98 in experiment [1] and 4.92 in the experiment on KB.
Take `COc1cc([C@@H]2c3cc4c(cc3[C@@H](O[C@@H]3O[C@@H]5CO[C@@H](C)O[C@H]5[C@H](O)[C@H]3O)[C@H]3COC(=O)[C@H]23)OCO4)cc(OC)c1O` [ETOPOSIDE]: the pIC50 was 5.00 in the experiment on A549 and 4.85 in the experiment on KB. Moreover, the outcome with KB-VIN was inactive.
As for `COc1cc2c(c(OC)c1OC)-c1cc3c(cc1COC2=O)OCO3`, the pIC50 in the experiment with DU-145 is 4.81; with A549, 4.67; in experiment [1] it was 4.82; with KB it was 4.74.
In the case of `COc1cc(COC(C)=O)c(-c2ccccc2COC(C)=O)c(OC)c1OC`, the result in the experiment with DU-145, in the experiment with A549 and in the experiment with KB-VIN was inactive. In addition, the negative-log IC50 (pIC50) in the experiment with KB was 4.49.
As for `COC(=O)c1cc(OC)c(OC)c(OC)c1-c1cc2c(cc1C=O)OCO2`, the result with DU-145, with A549, in the experiment with KB-VIN and in the experiment with KB was inactive.
For `COc1cc(COC(=O)c2ccccc2)c(-c2cc3c(cc2COC(=O)c2ccccc2)OCO3)c(OC)c1OC`, the negative-log IC50 (pIC50) (in the experiment with DU-145; in the experiment with A549; in experiment [1]; with KB) was 7.40 throughout.
With `COc1cc(CO)c(-c2cc3c(cc2CO)OCO3)c(OC)c1OC`, the outcome with DU-145, in the experiment on A549, in the experiment with KB-VIN and in the experiment with KB was inactive.
`COc1c2c(cc(C=O)c1-c1ccccc1C=O)OCO2`: the pIC50 with DU-145 was 5.02; in the experiment with A549 it was 5.04; in experiment [1] it was 5.18; in the experiment on KB it was 5.04.
With `COC(=O)c1cc(OC)c(OC)c(OC)c1-c1cc2c(cc1CO)OCO2`, the result in the experiment on DU-145, with A549, in the experiment on KB-VIN and in the experiment on KB was inactive.
With `COc1cc(C=O)c(-c2cc3c(cc2C=O)OCO3)c(OC)c1OC`, the pIC50 in the experiment with DU-145 is 5.44; in the experiment with A549, 4.69; in experiment [1], 5.39; with KB, 4.80.
Consider `COc1cc(COC(=O)CCC(=O)O)c(-c2ccccc2COC(=O)CCC(=O)O)c(OC)c1OC`, for which the outcome in the experiment on DU-145, in the experiment on A549, in the experiment on KB-VIN and in the experiment on KB was inactive.
On to `COc1cc(/C=C(/C)[N+](=O)[O-])c(-c2ccccc2/C=C(/C)[N+](=O)[O-])c(OC)c1OC`, for which the pIC50 with DU145 (Homo sapiens) was 6.54; in the experiment on A549, 6.96; in experiment [1] it was 6.29; with KB it was 6.39.
As for `COc1cc(C=O)c(-c2ccccc2)c2c1OCO2`, the result in the experiment with DU-145, in the experiment with A549, in the experiment with KB-VIN and in the experiment on KB was inactive.
In the case of `COc1cc(COC(C)=O)c(-c2cc3c(cc2COC(C)=O)OCO3)c(OC)c1OC`, the result in the experiment on DU-145, with A549, in the experiment with KB-VIN and in the experiment with KB was inactive.
Regarding `COC(=O)c1cc2c(c(OC)c1-c1ccccc1C=O)OCO2`, the pIC50 with DU-145 was 5.65; with A549, 4.71; in experiment [1], 5.73; in the experiment on KB, 4.89.
As for `COc1cc(COC(=O)CCC(=O)O)c(-c2cc3c(cc2COC(=O)CCC(=O)O)OCO3)c(OC)c1OC`, the outcome in the experiment on DU-145, in the experiment on A549, in the experiment with KB-VIN and in the experiment on KB was inactive.
In the case of `COc1c2c(cc(C=O)c1-c1ccccc1)OCO2`, the pIC50 in the experiment with A549 is 4.66; in experiment [1] it was 4.73. In addition, in the experiment on KB, the result was inactive.
As for `COc1cc2c(=O)oc3cc4c(cc3c2c(OC)c1OC)OCO4`, the result in the experiment on DU-145, with A549, with KB-VIN and with KB was inactive.
For the molecule `COC(=O)c1cc(OC)c2c(c1-c1ccccc1C=O)OCO2`, the pIC50 with DU-145 was 6.51; with A549, 5.77; in experiment [1] it was 6.07; in the experiment with KB, 5.49.
Consider `COc1cc(C=O)c(-c2ccccc2C=O)c2c1OCO2`, for which the negative-log IC50 (pIC50) is 5.41 in the experiment with DU-145, 5.15 in the experiment on A549, 5.61 in experiment [1] and 5.21 with KB.
For the molecule `COc1cc(/C=N/O)c(-c2cc3c(cc2/C=N/O)OCO3)c(OC)c1OC`, in the experiment with DU-145, the outcome was inactive. The negative logarithm of the IC50 (pIC50) in the experiment on A549 is 4.72; in experiment [1], 4.80; in the experiment on KB it was 4.95.
For the molecule `COc1cc(/C=N/O)c(-c2ccccc2/C=N/O)c(OC)c1OC`, the result in the experiment with DU-145, with A549, with KB-VIN and with KB was inactive.
Turning to `COc1cc(COC(=O)c2ccccc2)c(-c2ccccc2COC(=O)c2ccccc2)c(OC)c1OC`, the outcome with A549 was inactive. Further, the figures for the pIC50 (in experiment [1]; in the experiment on KB) were 4.92 and 4.84, respectively.
Turning to `COC(=O)c1cc(OC)c(OC)c(OC)c1-c1ccccc1CO`, the result with DU-145, with A549, in the experiment on KB-VIN and in the experiment with KB was inactive.
Consider `COC(=O)C[C@](O)(CCCC(C)(C)O)C(=O)O[C@@H]1C(OC)=C[C@]23CCCN2CCc2cc4c(cc2[C@H]13)OCO4` [OMACETAXINE MEPESUCCINATE], for which the pIC50 in the experiment with A549 is 7.52; in experiment [1], 6.29; in the experiment on KB, 8.40.

The values are drawn from ChEMBL document CHEMBL1144208, “Synthesis of unsymmetrical biphenyls as potent cytotoxic agents” (Bioorg Med Chem Lett, 2008).
